These molecules were tested against human Gal-3 (hGal-3) (Homo sapiens (Human), UniProt P17931) (assay: competitive binding assay: biotinylated hGal-3 binding to microplate-adsorbed asialofetuin (ASF)). Settings: Gal-3 inhibition; binding of biotinylated hGal-3 to ASF; mean values; read-out: IC50.
Procedure: If not explicitly mentioned otherwise, the inhibition data refer to the binding of biotinylated human Gal-3 (hGal-3).
Evaluation of Compound Inhibitory Activity (IC50)
The inhibitory activity of compounds is determined in competitive binding assays.
Briefly, compounds are serially diluted in DMSO (working dilutions).
Plates are incubated for 3 hours at 4° C., then washed with cold assay buffer (3×50 uL), incubated for 1 hour with 25 μL/well of a streptavidin-peroxidase solution (diluted in assay buffer to 80 ng/mL) at 4° C., followed by further washing steps with assay buffer (3×50 uL). Finally, 25 μL/well of ABTS substrate is added.
The calculated IC50 values may fluctuate depending on the daily assay performance. Fluctuations of this kind are known to those skilled in the art. IC50 values from several measurements are given as mean values.

Chain of human Gal-3 (hGal-3) (P17931 whole entry): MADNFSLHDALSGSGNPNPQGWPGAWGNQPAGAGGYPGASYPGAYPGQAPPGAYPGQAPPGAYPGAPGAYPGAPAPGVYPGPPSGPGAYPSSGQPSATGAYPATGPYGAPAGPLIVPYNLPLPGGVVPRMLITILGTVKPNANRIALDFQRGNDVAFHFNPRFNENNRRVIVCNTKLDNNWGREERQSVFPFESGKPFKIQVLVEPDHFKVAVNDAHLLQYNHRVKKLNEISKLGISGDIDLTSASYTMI

Row | IC50 | SMILES
1 | 50 nM | CC(C)Cc1c([C@@H](S[C@@H]2O[C@H](CO)[C@H](O)[C@H](n3cc(-c4cc(F)c(F)c(F)c4)nn3)[C@H]2O)C2(O)CCC(F)(F)CC2)noc1C1CC1 [2.44.131 R., (2S,3R,4S,5R,6R)-2-(((R)-(5-Cyclopropyl-4-isobutylisoxazol-3-yl)(4,4-difluoro-1-hydroxycyclohexyl)methyl)thio)-6-(hydroxymethyl)-4-(4-(3,4,5-trifluorophenyl)-1H-1,2,3-triazol-1-yl)tetrahydro-2H-pyran-3,5-diol]
2 | 800 nM | OC[C@H](S[C@@H]1O[C@H](CO)[C@H](O)[C@H](n2cc(-c3cc(F)c(F)c(F)c3)nn2)[C@H]1O)c1ccccc1 [Example 2.30.100R., (2S,3R,4S,5R,6R)-2-(((R)-2-Hydroxy-1-phenylethyl)thio)-6-(hydroxymethyl)-4-(4-(3,4,5-trifluorophenyl)-1H-1,2,3-triazol-1-yl)tetrahydro-2H-pyran-3,5-diol]
3 | 410 nM | CC(C)(O)C(S[C@@H]1O[C@H](CO)[C@H](O)[C@H](n2cc(-c3cc(F)c(F)c(F)c3)nn2)[C@H]1O)c1ccccc1Cl (stereo partly drawn) [Example 2.31.111., (2S,3R,4S,5R,6R)-2-((1-(2-Chlorophenyl)-2-hydroxy-2-methylpropyl)thio)-6-(hydroxymethyl)-4-(4-(3,4,5-trifluorophenyl)-1H-1,2,3-triazol-1-yl)tetrahydro-2H-pyran-3,5-diol]
4 | 70 nM | CS(=O)(=O)N1CCC(O)(C(S[C@@H]2O[C@H](CO)[C@H](O)[C@H](n3cc(-c4cc(F)c(F)c(F)c4)nn3)[C@H]2O)c2ccccc2C(F)(F)F)CC1 (stereo partly drawn) [Example 2.47.112., (2S,3R,4S,5R,6R)-2-(((4-Hydroxy-1-(methylsulfonyl)piperidin-4-yl)(2-(trifluoromethyl)phenyl)methyl)thio)-6-(hydroxymethyl)-4-(4-(3,4,5-trifluorophenyl)-1H-1,2,3-triazol-1-yl)tetrahydro-2H-pyran-3,5-diol]
5 | 220 nM | CS(=O)(=O)N1CC(O)(C(S[C@@H]2O[C@H](CO)[C@H](O)[C@H](n3cc(-c4cc(F)c(F)c(F)c4)nn3)[C@H]2O)c2ccccc2C(F)(F)F)C1 (stereo partly drawn) [Example 2..57.112., (2S,3R,4S,5R,6R)-2-(((3-Hydroxy-1-(methylsulfonyl)azetidin-3-yl)(2-(trifluoromethyl)phenyl)methyl)thio)-6-(Hydroxymethyl)-4-(4-(3,4,5-trifluorophenyl)-1H-1,2,3-triazol-1-yl)tetrahydro-2H-pyran-3,5-diol]
6 | 170 nM | CS(=O)(=O)N1CC(O)([C@H](S[C@@H]2O[C@H](CO)[C@H](O)[C@H](n3cc(-c4cc(F)c(F)c(F)c4)nn3)[C@H]2O)c2ccccc2C(F)(F)F)C1 [Example 2..57.112R., (2S,3R,4S,5R,6R)-2-(((R)-(3-Hydroxy-1-(methylsulfonyl)azetidin-3-yl)(2-(trifluoromethyl)phenyl)methyl)thio)-6-(hydroxymethyl)-4-(4-(3,4,5-trifluorophenyl)-1H-1,2,3-triazol-1-yl)tetrahydro-2H-pyran-3,5-diol]
7 | 5800 nM | CS(=O)(=O)N1CC(O)([C@@H](S[C@@H]2O[C@H](CO)[C@H](O)[C@H](n3cc(-c4cc(F)c(F)c(F)c4)nn3)[C@H]2O)c2ccccc2C(F)(F)F)C1 [Example 2..57.112S., (2S,3R,4S,5R,6R)-2-(((S)-(3-Hydroxy-1-(methylsulfonyl)azetidin-3-yl)(2-(trifluoromethyl)phenyl)methyl)thio)-6-(hydroxymethyl)-4-(4-(3,4,5-trifluorophenyl)-1H-1,2,3-triazol-1-yl)tetrahydro-2H-pyran-3,5-diol]
8 | 400 nM | COC(=O)N1CC(O)(C(S[C@@H]2O[C@H](CO)[C@H](O)[C@H](n3cc(-c4cc(F)c(F)c(F)c4)nn3)[C@H]2O)c2ccccc2C(F)(F)F)C1 (stereo partly drawn) [Example 2..58.112., Methyl 3-((((2S,3R,4S,5R,6R)-3,5-dihydroxy-6-(hydroxymethyl)-4-(4-(3,4,5-trifluorophenyl)-1H-1,2,3-triazol-1-yl)tetrahydro-2H-pyran-2-yl)thio)(2-(trifluoromethyl)phenyl)methyl)-3-hydroxyazetidine-1-carboxylate]
9 | 290 nM | O=C(NC1CC1)N1CC(O)(C(S[C@@H]2O[C@H](CO)[C@H](O)[C@H](n3cc(-c4cc(F)c(F)c(F)c4)nn3)[C@H]2O)c2ccccc2C(F)(F)F)C1 (stereo partly drawn) [Example 2..59.11.2, N-Cyclopropyl-3-((((2S,3R,4S,5R,6R)-3,5-dihydroxy-6-(hydroxymethyl)-4-(4-(3,4,5-trifluorophenyl)-1H-1,2,3-triazol-1-yl)tetrahydro-2H-pyran-2-yl)thio)(2-(trifluoromethyl)phenyl)methyl)-3-hydroxyazetidine-1-carboxamide]

Same assay, conditions: Table 5; read-out: IC50 (Gal-3 inhibition)

Row | IC50 | SMILES
10 | 90 nM | OC[C@H]1O[C@@H](S[C@H](c2ccccc2Cl)C2(O)CCC(F)(F)CC2)[C@H](O)[C@@H](n2cc(-c3cc(F)c(F)c(F)c3)nn2)[C@H]1O [Example 2.44.111R, (2S,3R,4S,5R,6R)-2-(((R)-(2-Chlorophenyl)(4,4-difluoro-1-hydroxycyclohexyl)methyl)thio)-6-(hydroxymethyl)-4-(4-(3,4,5-trifluorophenyl)-1H-1,2,3-triazol-1-yl)tetrahydro-2H-pyran-3,5-diol]
11 | 18400 nM | OC[C@H]1O[C@@H](S[C@@H](c2ccccc2Cl)C2(O)CCC(F)(F)CC2)[C@H](O)[C@@H](n2cc(-c3cc(F)c(F)c(F)c3)nn2)[C@H]1O [Example 2.44.111S, (2S,3R,4S,5R,6R)-2-(((S)-(2-Chlorophenyl)(4,4-difluoro-1-hydroxycyclohexyl)methyl)thio)-6-(hydroxymethyl)-4-(4-(3,4,5-trifluorophenyl)-1H-1,2,3-triazol-1-yl)tetrahydro-2H-pyran-3,5-diol]

Same assay, conditions: Table 9; 2-OMe-Gal inhibitors; read-out: IC50 (Gal-3 inhibition)

Row | IC50 | SMILES
12 | 140 nM | CO[C@@H]1[C@@H](n2cc(-c3cc(F)c(F)c(F)c3)nn2)[C@@H](O)[C@@H](CO)O[C@H]1S[C@H](c1ccccc1C(F)(F)F)[C@]1(O)CCOC(C)(C)C1 [Example 2.43.112RS.I, (2R,3R,4S,5R,6S)-6-(((R)-((S)-4-Hydroxy-2,2-dimethyltetrahydro-2H-pyran-4-yl)(2-(trifluoromethyl)phenyl)methyl)thio)-2-(hydroxymethyl)-5-methoxy-4-(4-(3,4,5-trifluorophenyl)-1H-1,2,3-triazol-1-yl)tetrahydro-2H-pyran-3-ol]

Same assay, conditions: Table 11; read-out: IC50 (Gal-3 inhibition)

Row | IC50 | SMILES
13 | 730 nM | CO[C@@H]1[C@@H](n2cc(-c3cc(F)c(F)c(F)c3)nn2)[C@@H](O)[C@@H](CO)O[C@H]1S[C@H](c1ncccc1C)[C@@]1(O)CCOC(C)(C)C1 [Example 2.43.126RR.I., (2R,3R,4S,5R,6S)-6-(((R)-((R)-4-Hydroxy-2,2-dimethyltetrahydro-2H-pyran-4-yl)(3-methylpyridin-2-yl)methyl)thio)-2-(hydroxymethyl)-5-methoxy-4-(4-(3,4,5-trifluorophenyl)-1H-1,2,3-triazol-1-yl)tetrahydro-2H-pyran-3-ol]
14 | 3500 nM | CO[C@@H]1[C@@H](n2cc(-c3cc(F)c(F)c(F)c3)nn2)[C@@H](O)[C@@H](CO)O[C@H]1S[C@@H](c1ncccc1C)[C@@]1(O)CCOC(C)(C)C1 [Example 2.43.126SR.I., (2R,3R,4S,5R,6S)-6-(((S)-((R)-4-Hydroxy-2,2-dimethyltetrahydro-2H-pyran-4-yl)(3-methylpyridin-2-yl)methyl)thio)-2-(hydroxymethyl)-5-methoxy-4-(4-(3,4,5-trifluorophenyl)-1H-1,2,3-triazol-1-yl)tetrahydro-2H-pyran-3-ol]
15 | 1900 nM | CO[C@@H]1[C@@H](n2cc(-c3cc(F)c(F)c(F)c3)nn2)[C@@H](O)[C@@H](CO)O[C@H]1S[C@@H](c1ncccc1C)[C@]1(O)CCOC(C)(C)C1 [Example 2.43.126SS.I., (2R,3R,4S,5R,6S)-6-(((S)-((S)-4-Hydroxy-2,2-dimethyltetrahydro-2H-pyran-4-yl)(3-methylpyridin-2-yl)methyl)thio)-2-(hydroxymethyl)-5-methoxy-4-(4-(3,4,5-trifluorophenyl)-1H-1,2,3-triazol-1-yl)tetrahydro-2H-pyran-3-ol]
16 | 130 nM | CO[C@@H]1[C@@H](n2cc(-c3cc(F)c(F)c(F)c3)nn2)[C@@H](O)[C@@H](CO)O[C@H]1SC(c1ncccc1C)C1(O)CCC2(CCOCC2)CC1 (stereo partly drawn) [Example 2.72.126.I, 9-((((2S,3R,4S,5R,6R)-5-Hydroxy-6-(hydroxymethyl)-3-methoxy-4-(4-(3,4,5-trifluorophenyl)-1H-1,2,3-triazol-1-yl)tetrahydro-2H-pyran-2-yl)thio)(3-methylpyridin-2-yl)methyl)-3-oxaspiro[5.5]undecan-9-ol]

Same assay, conditions: Table 14; read-out: IC50 (Gal-3 inhibition)

Row | IC50 | SMILES
17 | 60 nM | CO[C@@H]1[C@@H](n2cc(-c3ccc(F)c(F)c3F)nn2)[C@@H](O)[C@@H](CO)O[C@H]1SC(c1ncccc1C)C1(O)CCC(F)(F)CC1 (stereo partly drawn) [Example 21.44.126.I., (2R,3R,4S,5R,6S)-6-(((4,4-Difluoro-1-hydroxycyclohexyl)(3-methylpyridin-2-yl)methyl)thio)-2-(hydroxymethyl)-5-methoxy-4-(4-(2,3,4-trifluorophenyl)-1H-1,2,3-triazol-1-yl)tetrahydro-2H-pyran-3-ol]
18 | 330 nM | CO[C@@H]1[C@@H](n2cc(-c3cnc(F)c(C)c3)nn2)[C@@H](O)[C@@H](CO)O[C@H]1SC(c1ncccc1C)C1(O)CCC(F)(F)CC1 (stereo partly drawn) [Example 24.44.126.I., (2R,3R,4S,5R,6S)-6-(((4,4-Difluoro-1-hydroxycyclohexyl)(3-methylpyridin-2-yl)methyl)thio)-4-(4-(6-fluoro-5-methylpyridin-3-yl)-1H-1,2,3-triazol-1-yl)-2-(hydroxymethyl)-5-methoxytetrahydro-2H-pyran-3-ol]
